Data reported in patent US8697639B2, “Compositions and methods for treating bacteria” (Biosynexus Incorporated, priority 2005, dated 2014).
Bridge positions count the residues as written; N and C are the ends. Square brackets hold non-standard residues; d marks the D form. Peptide text beside a SMILES is read from it. * marks the point of attachment. Ileψ(thiazoline)Cys = CC[C@H](C)[C@H](N)C1=N[C@H](C(=O)*)CS1; dOrn = NCCC[C@@H](N)C(=O)O

Legend:
S. aureus [1] = experiment: Mouse skin infection model: S. aureus infection in abraded mouse skin treated with topical ointment; type: in vivo; conditions: for synergy with mupirocin in the skin infection model (in words): combination with mupirocin; for synergy with mupirocin in the skin infection model (in words) / synergy or additive effect with nisin in the skin infection model (in words): superficial wound model; for synergy or additive effect with nisin in the skin infection model (in words): combination with nisin
Protocol: (§1) Mouse Skin Infection Model: An overnight culture of S. aureus grown in tryptic soy broth (SA8; range from 1 to 6×10^9 CFUs/mL) was centrifuged at 4000×g for 10 minutes and resuspended in an equal volume of phosphate buffered saline (PBS). The bacteria were diluted to a percent transmittance of 40 (Spectronic 20D+) and diluted a subsequent 1:1000 in PBS for a final bacteria concentration of about 3×10^5. SKH1 (hrhr) hairless mice (Charles River) were sedated with 0.2 mL of ketamine (80 mg/kg) and xylazine (32 mg/kg) delivered intraperitoneally. The upper back of the mice were scrubbed with a 70% alcohol wipe and allowed to dry. Fine abrasions were made on the backs of the mice between the shoulders using 150 grit sandpaper. Bacteria were swabbed over the abraded area with a sterile, cotton-tipped applicator until the area was saturated with the solution.
Topical Ointment: 74 g of PEG 400 and 24 g of PEG 3350 were added to a 250 mL glass beaker and heated until all of the PEG 3350 was melted. […] Lysostaphin was first dissolved to a concentration of about 150 mg/mL in DI water before mixing into the ointment to give a final concentration of 2% (w/w).
Treatment of Infected Skin with Topical Ointment: Treatments aimed to eradicate S. aureus skin infections in the mouse model were started on the morning after infection (Day 1). […] The mice were sacrificed by CO2 asphyxiation on the morning of Day 3 and a 0.5-cm^2 patch of skin around the infected area was excised. The skin sample was disected and placed into a test tube containing 1 mL of 5 mg/mL proteinase K, 20 mg/mL esterase, and 20 mg/mL activated charcoal in PBS to neutralize the activity of the antibacterial agents. Bacteria were dislodged from the skin sample by sonication: 2 minute treatments per sample with alternating 5 seconds at 3 W and 5 seconds at 0 W in a Virsonic 600 with microtip (VirTis). After mixing by vortex, 50 μL of each sample was streaked onto blood agar plates, incubated at 37° C. overnight, and the colonies were counted and compared to untreated controls.
For the following data, except where noted in FIG. 2, all antibiotic formulations were in a common polyethylene glycol (PEG) ointment (PEG 400 plus PEG 3350).

[2] = test system: S. aureus strain resistant to mupirocin; experiment: Mupirocin-resistant S. aureus infection in abraded mouse skin; type: in vivo; conditions: FIG. 3
Protocol: as §1
Topical Ointment: 74 g of PEG 400 and 24 g of PEG 3350 were added to a 250 mL glass beaker and heated until all of the PEG 3350 was melted. […]
Treatment of Infected Skin with Topical Ointment: Treatments aimed to eradicate S. aureus skin infections in the mouse model were started on the morning after infection (Day 1). […] After mixing by vortex, 50 μL of each sample was streaked onto blood agar plates, incubated at 37° C. overnight, and the colonies were counted and compared to untreated controls.

[3] = test system: Staphylococcus aureus ATCC #6538; experiment: Pig partial thickness wounds inoculated with Staphylococcus aureus; type: in vivo
P. aeruginosa [4] = experiment: P. aeruginosa infection in abraded mouse skin; type: in vivo; conditions: FIG. 4
P. aeruginosa [5] = conditions: previously shown; cited from earlier work
S. aureus [6] = experiment: In vitro MIC of nisin alone or in combination (log reduction of viable S. aureus); type: cell-based; conditions: FIG. 11
Protocol: In order to determine if nisin could function in a synergistic way with other antimicrobials to treat (e.g., kill and/or inhibit growth of) bacteria in vitro, the minimum inhibitory concentration (MIC) of nisin alone or nisin in combination with either mupirocin, neomycin or gentamicin were tested. The MIC was determined by calculating the log reduction of viable S. aureus following incubation with the amounts of nisin and other antimicrobials as indicated in FIG. 11.

S. aureus [7] = experiment: Suture skin infection model (deep tissue infection) in mouse; type: in vivo; conditions: deep cut, FIG. 13
Protocol: It was determined whether nisin and mupirocin, either alone or in combination with each other, would be able to treat S. aureus in a deep tissue infection model. A suture skin infection model was generated in which a deep cut (e.g., one needing sutures to close) was made in a mouse and S. aureus introduced into the incision. […] Thus, a combination of nisin and mupirocin can be used to treat a deep tissue infection as well as a […] infection.

Compound	synergy with mupirocin in the skin infection model (in words) (S. aureus [1])	synergy with nisin in vitro (in words) (S. aureus [6])	synergy or additive effect with nisin in the skin infection model (in words) (S. aureus [1])	other results
CC[C@H](C)[C@H](N)C1=N[C@H](C(=O)N[C@@H](CC(C)C)C(=O)N[C@H](CCC(=O)O)C(=O)N[C@H](C(=O)N[C@H]2CCCCNC(=O)[C@H](CC(N)=O)NC(=O)[C@@H](CC(=O)O)NC(=O)[C@H](Cc3cnc[nH]3)NC(=O)[C@@H](Cc3ccccc3)NC(=O)[C@H]([C@@H](C)CC)NC(=O)[C@@H](CCCN)NC2=O)[C@@H](C)CC)CS1 [bacitracin] ({Ileψ(thiazoline)Cys}-L[dE]IK[dOrn]I[dF]H[dD]N; lactam 4-C)	did not synergize	–	–	–
C/C(=C\C(=O)OCCCCCCCCC(=O)O)C[C@@H]1OC[C@H](C[C@@H]2O[C@H]2[C@@H](C)[C@H](C)O)[C@@H](O)[C@H]1O [mupirocin]	–	does not synergize	–	activity against mupirocin-resistant S. aureus (in words) [2]: minimal activity; decrease of infectious CFUs (S. aureus [1]; abraded mouse skin, PEG ointment 3 times a day on Days 1 and 2, FIG. 1, for combinations: residual infections): 3 logs; Staphylococcus aureus recovered from wounds ([3]; Day 7 post treatment, FIG. 8): 1.63 Log cfu/ml; Staphylococcus aureus recovered from wounds ([3]; two days after initial treatment, treated twice per day, FIG. 6): 4.96±0.8 Log CFU/ml; activity relative to nisin formulation (in words) (P. aeruginosa [4]): does not add any additional activity; activity against P. aeruginosa (in words) (P. aeruginosa [5]): poor activity; efficacy in treating S. aureus in suture infection model (in words) (S. aureus [7]): very little efficacy
gallidermin	did synergize	–	did not synergize	–
gentamicin	–	does not synergize	did synergize	–
neomycin	–	does not synergize	did not synergize	–
